Source: patent publication US20160089321A1, “ANTIPERSPIRANT COMPOSITIONS” (Johnson & Johnson Consumer Inc., priority 2014, published 2016)

What was measured:
[1] = Turbidity measurement caused by gel polymerization in alkaline pH (turbidimeter); type: physicochemical; details: for Potential to gel polymerize in an alkaline environment: summary of Table 1
Procedure: In this test, a Hach model 2100 lab turbidimeter was used. One solution containing sodium hydroxide at pH 8.5 was prepared and each compound was tested at 10% concentration after mixing. […] The insoluble gel formed should act as an obstruction at the orifice of the sweat gland, reducing the flow of axillary perspiration.

[2] = biological target: T1, Bovine serum albumin (BSA) (Bos taurus, UniProt P02769); assay: In vitro active-protein interaction: BSA precipitation by the Bradford method; type: biochemical; details: for Precipitation (BSA): screening test, 10% active solution; for Precipitation (BSA) / % BSA Precipitation: buffer pH 4.9; for % BSA Precipitation: dose-response assay
T1 construct: add 4 g of albumin (available from Sigma-Aldrich) from bovine serum (BSA) to 2000 mL of buffer solution; purchased Sigma-Aldrich A7906; host or cells: bovine serum (natural source)
T1 sequence (P02769 25-607): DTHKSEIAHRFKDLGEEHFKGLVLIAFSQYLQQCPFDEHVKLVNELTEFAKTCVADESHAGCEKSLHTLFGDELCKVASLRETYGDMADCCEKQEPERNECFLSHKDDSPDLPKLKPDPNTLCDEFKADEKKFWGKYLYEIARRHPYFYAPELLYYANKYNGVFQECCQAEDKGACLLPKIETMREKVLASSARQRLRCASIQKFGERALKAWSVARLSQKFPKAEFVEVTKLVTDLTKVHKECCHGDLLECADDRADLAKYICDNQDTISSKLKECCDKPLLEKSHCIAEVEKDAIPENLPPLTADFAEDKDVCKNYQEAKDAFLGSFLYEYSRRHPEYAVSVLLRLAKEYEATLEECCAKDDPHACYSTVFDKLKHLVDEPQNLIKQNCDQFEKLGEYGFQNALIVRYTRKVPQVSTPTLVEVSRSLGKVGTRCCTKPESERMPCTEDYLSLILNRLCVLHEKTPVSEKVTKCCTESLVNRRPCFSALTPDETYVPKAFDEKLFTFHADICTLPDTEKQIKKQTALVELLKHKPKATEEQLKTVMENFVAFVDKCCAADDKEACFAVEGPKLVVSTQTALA
Procedure: Method 2: In Vitro Study to Evaluate Active-Protein Interaction
Bovine serum albumin (BSA) was used as the reference protein to generate the calibration curve. […] The BSA granular, the BSA solution standard and Bradford reagent were all obtained from Sigma-Aldrich (Catalog Number: A7906, PO834, B6916). The buffer solution was made by adding 875 mL of 0.1 Molar sodium hydroxide (SpecSol) to 125 mL 0.1 Molar potassium dihydrogen phosphate (Merck) and its pH was adjusted to BSA isoelectric point (pH 4.9).
1. Prepare buffer by adding 875 mL of 0.1 Molar sodium hydroxide to 125 mL of 0.1 Molar potassium dihydrogen phosphate, adjusted to pH 4.9. This is the buffer solution used to make the active sample solution, the dose-response curve and the protein solution.
2. To prepare an active sample solution for initial screening, add 5 g of the active material to 50 mL of the buffer solution.
3. To prepare the protein solution, add 4 g of albumin (available from Sigma-Aldrich) from bovine serum (BSA) to 2000 mL of buffer solution.
4. To prepare the reaction solution, add 10 mL of the sample solution (step 2) to 50 mL of the protein solution.
5. To prepare the analytical solution, after filtration through a 0.45 μm membrane, 0.01 mL of reaction solution (step 4) to 3 mL of the Bradford reagent. Measure and record the absorbance at 595 nm. Determine the protein concentration by comparison to the standard curve.

[3] = compound at 10% in sodium hydroxide solution pH 8.5
[4] = mean turbidity, compound at 10% in sodium hydroxide solution pH 8.5

## CC(O)C(=O)O.N (stereo not shown) [Ammonium lactate]
[1]; [3]
  Physical Observation: Liquid
[1]; [4]
  Turbidity pH 8.5: 1.2 NTU

## N.N.O=S(=O)(O)O [Ammonium sulfate]
[1]; [3]
  Physical Observation: Liquid
[1]; [4]
  Turbidity pH 8.5: 1.1 NTU

## CC(=O)[O-].CC(=O)[O-].[Ca+2] [Calcium acetate]
[1]; pH 8.5
  Physical Observation: Liquid
  Turbidity pH 8.5: 20.0 NTU
[2]
  Precipitation (BSA): 5%

## CC(O)C(=O)[O-].CC(O)C(=O)[O-].[Ca+2] (stereo not shown) [Calcium lactate]
[1]; [3]
  Physical Observation: Liquid
[1]; [4]
  Turbidity pH 8.5: 0.9 NTU

## [Mg+2].[O-][Cl+2]([O-])[O-].[O-][Cl+2]([O-])[O-] [Magnesium chlorate]
[1]; [3]
  Physical Observation: Liquid
[1]; [4]
  Turbidity pH 8.5: 0.4 NTU
[2]
  Precipitation (BSA): 4%

## O.O=S(=O)([O-])[O-].[Mg+2] [Magnesium sulfate 1•H2O]
[1]; [3]
  Physical Observation: Liquid
[1]; [4]
  Turbidity pH 8.5: 0.9 NTU
[2]
  Precipitation (BSA): 11%

## O.O.O.O.O.O=S(=O)([O-])[O-].[Mg+2] [Magnesium sulfate 5•H2O]
[1]; [3]
  Physical Observation: Liquid
[1]; [4]
  Turbidity pH 8.5: 1.5 NTU
[2]
  Precipitation (BSA): 10%

## O.O.O.O.O.O.O.O=S(=O)([O-])[O-].[Mg+2] [Magnesium sulfate 7•H2O]
[1]; [3]
  Physical Observation: Liquid
[1]; [4]
  Turbidity pH 8.5: 1.5 NTU
[2]
  Precipitation (BSA): 12%

## O=S(=O)([O-])[O-].[Mg+2] [Magnesium sulfate Andros]
[1]; [3]
  Physical Observation: Liquid
[1]; [4]
  Turbidity pH 8.5: 0.5 NTU
[2]
  Precipitation (BSA): 8%

## CC(=O)[O-].[Na+] [Sodium acetate]
[1]; pH 8.5
  Physical Observation: Liquid
  Turbidity pH 8.5: 0.9 NTU
[2]
  Precipitation (BSA): 5%

## CC(O)C(=O)[O-].[Na+] (stereo not shown) [Sodium lactate]
[1]; [3]
  Physical Observation: Liquid
[1]; [4]
  Turbidity pH 8.5: 0.5 NTU

## O=S(=O)([O-])[O-].[Na+].[Na+] [Sodium sulfate]
[1]; pH 8.5
  Physical Observation: Liquid
  Turbidity pH 8.5: 1.8 NTU

## CC(O)C(=O)[O-].CC(O)C(=O)[O-].[Zn+2] (stereo not shown) [Zinc Lactate (food), zinc lactate]
[1]; [3]
  Physical Observation: Gel Polymerization
[1]; [4]
  Turbidity pH 8.5: 525.5 NTU
[1]
  Potential to gel polymerize in an alkaline environment: high potential to gel polymerize

## CC(O)C(=O)[O-].CC(O)C(=O)[O-].[Zn+2] (stereo not shown) [Zinc Lactate (pharma), zinc lactate]
[1]; [3]
  Physical Observation: Gel Polymerization
[1]; [4]
  Turbidity pH 8.5: 538.0 NTU
[1]
  Potential to gel polymerize in an alkaline environment: high potential to gel polymerize

## O=S(=O)([O-])c1ccc(O)cc1.O=S(=O)([O-])c1ccc(O)cc1.[Zn+2] [Zinc Phenolsulfonate, zinc phenolsulfonate]
[1]; [3]
  Physical Observation: Liquid
[1]; [4]
  Turbidity pH 8.5: 1.8 NTU
[2]; 1% solution
  % BSA Precipitation: 5%
[2]; 5% solution
  % BSA Precipitation: −1%
[2]; 10% solution
  % BSA Precipitation: 21%
[2]; 15% solution
  % BSA Precipitation: 31%
[2]
  Precipitation (BSA): 18%
[2]; summary of Tables 2 and 3
  Potential to be clogging agents (protein precipitation): demonstrated potential to be clogging agents

## Aluminum chlorohydrate [reference compound]
[2]; 1% solution
  % BSA Precipitation: 24%
[2]; 5% solution
  % BSA Precipitation: 56%
[2]; 10% solution
  % BSA Precipitation: 79%
[2]; 15% solution
  % BSA Precipitation: 95%

## aluminum sesquichlorohydrate [Aluminium Sesquichlorohydrate, reference compound]
[1]; [3]
  Physical Observation: Gel Polymerization
[1]; [4]
  Turbidity pH 8.5: 593.0 NTU
[2]
  Precipitation (BSA): 100%
